Common to all, as to test: NCI anticancer screen, dose series, 48 h
Experiment [1] relates to SF-268 CNS.
Experiment [2] concerns T-47D breast.
The test system of experiment [3] is SF-295 CNS.
Experiment [4] has as its system MDA-MB-435.
Experiment [5] relates to IGROV1 ovarian.
For experiment [6], the system named is A498 renal.
For experiment [7], the system named is EKVX NSCLC.
Experiment [8] concerns ACHN renal.
The test system of experiment [9] is NCI-H522 lung.
The test system of experiment [10] is UACC-257 melanoma.
Experiment [11] has as its system SK-OV-3 ovarian.
Experiment [12] deals with M14 melanoma.
The subject of experiment [13] is HCT-15 colon.
Experiment [14] deals with MOLT-4 leukemia.
Experiment [15] has as its system COLO 205 colon.
Experiment [16] deals with NCI-H23 lung.
For experiment [17], the system named is SK-MEL-2 melanoma.
The test system of experiment [18] is UACC-62 melanoma.
Experiment [19] has as its system CAKI-1 renal.

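A five-concentration, 48-hour dose response in 96-well plates underlies each endpoint, interpolated linearly between surrounding concentrations. TGI is the concentration that stops growth completely.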

For `CC(C)(C)OC(=O)NCCC1CNc2ccccc21` (stereo not drawn), the TGI in experiment [1], in [2], in experiment [3], in [4], in [5] and in experiment [6] was > 100 µM throughout. Further, the TGI in [7], in experiment [8], in experiment [9], in experiment [10], in experiment [11] and in experiment [12] was > 100 µM each time. Further, the TGI in experiment [13], in experiment [14], in experiment [15], in [16], in [17] and in experiment [18] was > 100 µM throughout. Besides, the TGI in experiment [19] is > 100 µM.

Take `COc1ccc(C(=O)CCN(C)C)c2ccccc12`: the TGI in experiment [1] is 55.4 µM; in experiment [2], 49.5 µM; in [3], > 100 µM; in [4], 48.1 µM; in experiment [5], 40.2 µM; in [6], > 88.8 µM. Moreover, the TGI in [7] was 55.8 µM; in [8] it was 34 µM; in [9], 21.9 µM; in experiment [10] it was > 58.7 µM; in [11], > 100 µM; in [12], 98.3 µM. Also, the TGI in experiment [13] was 48.7 µM; in experiment [14] it was 46 µM; in experiment [15], 36.6 µM; in [16] it was 51.4 µM; in experiment [17], 39.2 µM; in experiment [18] it was > 58.1 µM. The molecule further displayed a TGI in experiment [19] of 17.4 µM.

With `c1cc(C2=NCCO2)c2ccsc2c1`, the TGI in [1], in [2], in experiment [3], in [4], in experiment [5] and in experiment [6] was > 100 µM throughout. Besides, the TGI in experiment [7], in [8], in [9], in [10], in experiment [11] and in experiment [12] was > 100 µM in each case. Further, the TGI in experiment [13], in experiment [14], in [15], in experiment [16], in experiment [17] and in [18] was > 100 µM throughout. In addition, in experiment [19], the TGI is > 100 µM.

Turning to `COc1ccc(C(=O)c2nc3ccccc3nc2N2CCN(c3ccccc3)CC2)cc1OC`, the TGI in experiment [1], in experiment [2], in experiment [3], in experiment [4], in experiment [5] and in experiment [6] was > 100 µM throughout. Besides, the TGI in experiment [7], in experiment [8], in [9], in experiment [10], in [11] and in experiment [12] was > 100 µM in each case. For the same molecule, the TGI in experiment [13], in experiment [14], in [15], in [16], in experiment [17] and in experiment [18] was > 100 µM each time. Further, the TGI in experiment [19] is > 100 µM.

As for `Cn1c2ccccc2c2c3c(c4c5ccccc5n(C5OC(CO)C(O)C(O)C5O)c4c21)C(=O)OC3=O` (stereo not drawn), the TGI in experiment [1], in experiment [2], in experiment [3], in [4], in experiment [5] and in experiment [6] was > 100 µM each time. Besides, the TGI in experiment [7], in experiment [8], in experiment [9], in [10], in [11] and in experiment [12] was > 100 µM throughout. Moreover, the TGI in experiment [13], in [14], in experiment [15], in experiment [16], in experiment [17] and in experiment [18] was > 100 µM throughout. Also, the TGI in experiment [19] was > 100 µM.

As to `CCOC(=O)[C@@]1(C(C)=O)CC(C)=C(C)C[S@]1=O`, the TGI in experiment [1], in experiment [2], in [3], in [4], in experiment [5] and in experiment [6] was > 100 µM in each case. For the same molecule, the TGI in experiment [7], in [8], in experiment [9], in experiment [10], in experiment [11] and in [12] was > 100 µM each time. In addition, the TGI in [13], in experiment [14], in experiment [15], in experiment [16], in experiment [17] and in [18] was > 100 µM in each case. For the same molecule, the TGI in experiment [19] was > 100 µM.

On to `Cc1cccc2c(NCCN(C)C)c3cccc(C(=O)NCCN(C)C)c3nc12`, for which the TGI in experiment [1] came to 2.85 µM; in [2] it was 19.7 µM; in [3], 3.77 µM; in [4], 1.1 µM; in experiment [5] it was 6.64 µM; in [6] it was 4.06 µM. For the same molecule, the TGI in experiment [7] was determined as 4.29 µM; in experiment [8] it was 4.33 µM; in experiment [9], 0.114 µM; in experiment [10], 2.47 µM; in [11], 27.1 µM; in [12], 2.44 µM. The TGI worked out at 13.9 µM in [13]; 0.102 µM in experiment [14]; 1.61 µM in experiment [15]; 1.3 µM in [16]; 1.13 µM in [17]; 0.311 µM in experiment [18]. The molecule further returned a TGI in experiment [19] of 4.92 µM.

In the case of `COCN1C(=N)C(C(=O)OC(C)(C)C)=C2C=C(O)C=CC21C` (stereo not drawn), the TGI is 29.5 µM in experiment [1]; 9.93 µM in [2]; > 100 µM in experiment [3]; 27.4 µM in experiment [4]; 28.2 µM in [5]; 36.9 µM in experiment [6]. In addition, the TGI is 37.9 µM in experiment [7]; 19.6 µM in experiment [8]; 13.5 µM in experiment [9]; 22.5 µM in experiment [10]; 84 µM in experiment [11]; 29.5 µM in experiment [12]. In addition, the TGI in experiment [13] was 27.5 µM; in experiment [14], > 100 µM; in [15] it was 17.5 µM; in experiment [16], 30.2 µM; in experiment [17], 31.9 µM; in experiment [18], 29.1 µM. This molecule also yielded a TGI in experiment [19] of 28.5 µM.

`Cc1c(C(=O)Nc2ccccc2)nnn1-c1ccnc2cc(C(F)(F)F)ccc12`: the TGI in [1], in experiment [2], in [3], in experiment [4], in experiment [5] and in [6] was > 100 µM in each case. Besides, the TGI in experiment [7], in [8], in experiment [9], in [10], in [11] and in [12] was > 100 µM in each case. Also, the TGI in experiment [13] was > 100 µM; in experiment [14], 79.6 µM; in experiment [15], > 100 µM; in experiment [16] it was > 100 µM; in experiment [17], > 100 µM; in experiment [18], > 100 µM. The TGI in experiment [19] is > 100 µM.

On to `CC(=O)OC12CC[N+]3(C)CCCCC3C1=Nc1ccccc12` (stereo not drawn), for which the TGI in [1], in experiment [2], in [3], in experiment [4], in [5] and in experiment [6] was > 100 µM each time. Moreover, the TGI in experiment [7], in [8], in experiment [9], in [10], in experiment [11] and in [12] was > 100 µM throughout. In addition, the TGI in experiment [13], in experiment [14], in experiment [15], in experiment [16], in [17] and in experiment [18] was > 100 µM each time. Besides, in experiment [19], the TGI was > 100 µM.

With `C=CCc1cccc2cc(C(=O)Nc3ccc(C)cc3)c(=N)oc12`, the TGI in experiment [1], in experiment [2], in experiment [4], in [5], in [6] and in [7] was > 100 µM in each case. Also, the TGI in experiment [8], in [9], in experiment [10], in experiment [11], in [12] and in [13] was > 100 µM each time. Besides, the TGI in experiment [14], in experiment [15], in [16], in experiment [17], in [18] and in experiment [19] was > 100 µM throughout.

Turning to `N#CC1(C#N)[C@@H]2CCC=C(Sc3ccccc3)[C@@H]21`, the TGI in experiment [1] is 39 µM; in [2], 52.4 µM; in experiment [3], 32.8 µM; in [4], 26.8 µM; in [5], 39.8 µM; in [6], > 100 µM. In addition, the TGI in experiment [7] amounted to 35.4 µM; in [8] it was 33.1 µM; in experiment [9], 24.5 µM; in experiment [10] it was 42.4 µM; in [11], 39.6 µM; in experiment [12], 26.5 µM. Also, the TGI in experiment [13] came out at 51.1 µM; in [14], 85.9 µM; in experiment [15], 32 µM; in [17] it was 28.3 µM; in experiment [18], 37.6 µM; in experiment [19], 27.2 µM.

Regarding `CN(/N=C/c1ccc(Cl)c(Cl)c1)C1=NCCCCN1`, the TGI in [1] is > 100 µM; in experiment [2] it was > 100 µM; in experiment [3], > 100 µM; in experiment [4], 36 µM; in [5], > 100 µM; in experiment [6] it was 49.2 µM. Besides, the TGI in experiment [7] is > 100 µM; in [8], > 100 µM; in [9], 33.7 µM; in experiment [10] it was 50.8 µM; in [11] it was > 100 µM; in experiment [12], 29.9 µM. Also, the TGI is 81.6 µM in experiment [13]; 80.9 µM in experiment [14]; 37.2 µM in experiment [15]; > 100 µM in experiment [16]; 42.1 µM in experiment [17]; 52.8 µM in experiment [18]. In [19], this molecule registered a TGI of 82.7 µM.

As to `C1=CCC[C@@H]2CN3CCCC/C=C\CCCC[C@H]4C[C@H](CN(CCCCCCCC1)C4)[C@H]2CC3`, the TGI in experiment [1] was determined as 21.3 µM; in experiment [2], 20.8 µM; in [3], 16.4 µM; in experiment [4], 15.7 µM; in experiment [5], 18 µM; in experiment [6], 30.3 µM. Further, the TGI in [7] was 21.6 µM; in experiment [8], 17 µM; in [9], 17.7 µM; in experiment [10], 18.1 µM; in [11] it was > 50 µM; in [12] it was 18.7 µM. The TGI worked out at 18.3 µM in experiment [13]; 21.2 µM in experiment [14]; 16 µM in experiment [15]; 34.5 µM in experiment [16]; 15.9 µM in [17]; 16.9 µM in experiment [18]. In [19], this molecule came in with a TGI of 18.2 µM.

Take `OCC(O)COCn1cc(Cn2ncc3c(NCc4ccccc4)ncnc32)nn1` (stereo not drawn): the TGI in experiment [1] is 32.8 µM; in experiment [2] it was > 100 µM; in [3], > 100 µM; in experiment [4], > 100 µM; in experiment [5] it was > 100 µM; in [6], > 100 µM. Further, the TGI in experiment [7] was > 100 µM; in [8], > 100 µM; in [9], 33.4 µM; in experiment [10], > 100 µM; in experiment [11], > 100 µM; in experiment [12], > 100 µM. The TGI in experiment [13], in experiment [14], in [15], in experiment [16], in experiment [17] and in experiment [18] was > 100 µM each time. For the same molecule, the TGI in experiment [19] is > 100 µM.

The values above are taken from PubChem BioAssay (NCI).
